The values that follow come from patent publication US10053468B2, “Heterocyclic compound” (TAKEDA PHARMACEUTICAL COMPANY LIMITED, priority 2013, dated 2018).

In assay [1] the target is T1, RORγt (Homo sapiens, UniProt P51449).
T1 sequence (P51449 1-497 isoform P51449-2): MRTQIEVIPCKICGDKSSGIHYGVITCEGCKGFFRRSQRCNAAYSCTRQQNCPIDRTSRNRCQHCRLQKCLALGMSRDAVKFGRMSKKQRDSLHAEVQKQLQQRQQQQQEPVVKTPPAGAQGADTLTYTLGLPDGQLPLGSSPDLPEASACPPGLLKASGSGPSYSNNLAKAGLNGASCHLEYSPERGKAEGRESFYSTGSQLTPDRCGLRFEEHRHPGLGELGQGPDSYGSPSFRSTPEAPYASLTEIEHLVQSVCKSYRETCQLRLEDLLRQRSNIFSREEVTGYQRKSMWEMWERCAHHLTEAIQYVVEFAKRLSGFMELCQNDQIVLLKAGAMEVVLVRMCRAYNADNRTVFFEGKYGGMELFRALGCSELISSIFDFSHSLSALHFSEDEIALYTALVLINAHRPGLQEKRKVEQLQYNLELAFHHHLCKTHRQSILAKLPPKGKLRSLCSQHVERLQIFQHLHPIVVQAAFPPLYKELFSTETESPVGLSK
Description: Jurkat reporter test (human IL-17 ROR response element luciferase, RORγt vector). The conditions noted are these: read-out: Luminescence level inhibitory rate at test compound 3 μM (%). It counts as cell-based. The method, boiled down:
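Jurkat cells were electroporated (1350 V, 10 ms, 3 pulses) with reporter constructs, then cultured overnight with compound in RPMI containing 10% lipid-reduced FCS, 10 mM HEPES pH 7.5 and 5 μM lovastatin. Luciferase was quantified by Bright-Glo luminescence after 10 min at room temperature.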

Assay [2] deals with T1, RORγt. Description: Cofactor recruitment test (Alpha Screen, biotinylated SRC-1 peptide). It counts as biochemical. The following applies: read-out: Signal value inhibitory rate at test compound 1 μM (%). As to the method:
Cofactor Recruitment Test
Cofactor recruitment test was performed by Alpha Screen (Histidine Detection Kit, PerkinElmer) method. First, a test compound was diluted with an assay buffer (50 mM Tris-HCl (pH 7.5), 50 mM KCl, 1 mM DTT, 0.1% BSA) and added to a 384 well plate by 5 μL. […] The mixture was stood in a dark place for 1 hr, and the signal value was measured by Envision (PerkinElmer).

Assay [3] addresses T1, RORγt. Description: RORγt binding test using fluorescent-labeled cholesterol (TR-FRET). The following applies: read-out: Binding inhibitory rate of fluorescent-labeled cholesterol to RORγt at test compound 1 μM (%). The method, boiled down:
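TR-FRET displacement with His-tagged RORγt, BODIPY-cholesterol and Tb-anti-His antibody in Tris-HCl pH 7.5, 100 mM NaCl, 1 mM DTT, 0.1% BSA. Compound, RORγt and labelled cholesterol were incubated 20 min at RT, then antibody was added for another 20 min.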
(In general: Time-resolved FRET reads energy transfer from a long-lived donor to a nearby acceptor.)

The target of assay [4] is T1, RORγt. Description: RORγt binding test using fluorescent-labeled synthetic ligand (TR-FRET). The conditions noted are these: read-out: Binding inhibitory rate of fluorescent-labeled synthetic ligand to RORγt at test compound 1 μM (%). On the procedure: RORγt Binding Test Using Fluorescent-labeled Synthetic Ligand
The binding activity of the test compound to RORγt was measured by a time resolved fluorescence resonance energy transfer method (TR-FRET) utilizing histidine-tagged RORγt, fluorescent-labeled synthetic ligand, and terbium-labeled anti-histidine tag antibody (Invitrogen). First, a test compound diluted with an assay buffer (20 mM Tris-HCl (pH 7.5), 100 mM NaCl, 1 mM DTT, 0.1% BSA) was added to a 384 well plate by 3 μL. Then, RORγt diluted with an assay buffer to 240 nM was added by 3 μL, after which fluorescent-labeled synthetic ligand diluted with the assay buffer to 12 μM was added by 3 μL, and the mixture was stood at room temperature for 20 min. Thereafter, a terbium-labeled anti-histidine tag antibody diluted with the assay buffer to 8 nM was added by 3 μL. The mixture was stood at room temperature for 20 min, and fluorescence intensity (excitation wavelength 320 nm, fluorescence wavelength 520 nm, delay time 100 microseconds) was measured by Envision (PerkinElmer).

Where [5] appears, read: test compound 3 μM, Jurkat cells.

Each structure is given as a SMILES string. Read-outs that look alike come from different tables or passages of the source.

Turning to `CCOc1ccc2c(n1)CCN(C(=O)Cc1cc(O)no1)[C@H]2C(=O)Nc1ccc([Si](C)(C)C)c(F)c1` [Example 151, (5R)-2-ethoxy-N-(3-fluoro-4-(trimethylsilyl)phenyl)-6-((3-hydroxy-1,2-oxazol-5-yl)acetyl)-5,6,7,8-tetrahydro-1,6-naphthyridine-5-carboxamide], at RORγt [1] (Jurkat), the inhibition at 3 µM stood at 102%. For the same compound, the inhibition at 1 µM at RORγt [2] worked out at 99%; on RORγt [3] it was 99%; on RORγt [4] it was 102%.

In the case of `COc1ccc2c(n1)CCN(C(=O)Cc1cc(O)no1)[C@H]2C(=O)Nc1cc(F)c2c(c1)CCC2(C)C` [Example 117, (5R)-N-(7-fluoro-1,1-dimethyl-2,3-dihydro-1H-inden-5-yl)-6-((3-hydroxy-1,2-oxazol-5-yl)acetyl)-2-methoxy-5,6,7,8-tetrahydro-1,6-naphthyridine-5-carboxamide], the inhibition at 3 µM on RORγt [1] (setting [5]) came out at 101%. Also, the values for the inhibition at 1 µM on RORγt [2], on RORγt [3] and on RORγt [4] were 87%, 102% and 102%, respectively.

On to `COc1ccc2c(c1)CCN(C(=O)[C@H]1CNC(=O)C1)[C@H]2C(=O)Nc1ccc(C(C)(C)C)c(F)c1` [Example 26, (1R)-N-(4-tert-butyl-3-fluorophenyl)-6-methoxy-2-(((3R)-5-oxopyrrolidin-3-yl)carbonyl)-1,2,3,4-tetrahydroisoquinoline-1-carboxamide], for which the inhibition at 3 µM on RORγt [1] (setting [5]) was 102%. Moreover, the inhibition at 1 µM at RORγt [2] came to 81.5%; on RORγt [3], 97.7%; on RORγt [4], 101%.

In the case of `COc1ccc2c(n1)CCN(C(=O)c1cc(O)no1)[C@H]2C(=O)Nc1cc(F)c2c(c1)CCC2(C)C` [Example 115, (5R)-N-(7-fluoro-1,1-dimethyl-2,3-dihydro-1H-inden-5-yl)-6-((3-hydroxy-1,2-oxazol-5-yl)carbonyl)-2-methoxy-5,6,7,8-tetrahydro-1,6-naphthyridine-5-carboxamide], at RORγt [1] (setting [5]), the inhibition at 3 µM worked out at 102%. Besides, the inhibition at 1 µM at RORγt [2] stood at 89%; on RORγt [3] it was 103%; on RORγt [4], 101%.

In the case of `COCc1ccc2c(c1)CCN(C(=O)CCCC(=O)O)[C@H]2C(=O)Nc1cc(F)c([Si](C)(C)C)c(F)c1` [Example 130, 5-((1R)-1-((3,5-difluoro-4-(trimethylsilyl)phenyl)carbamoyl)-6-(methoxymethyl)-3,4-dihydroisoquinolin-2(1H)-yl)-5-oxopentanoic acid], the inhibition at 3 µM on RORγt [1] (Jurkat) was 104%. Besides, the inhibition at 1 µM on RORγt [2] was found to be 100%; on RORγt [3], 102%; at RORγt [4], 102%.

In the case of `COc1ccc2c(n1)CCN(C(=O)Cc1cc(O)no1)C2C(=O)Nc1ccc(C(C)(C)C)c(F)c1` (centres unmarked) [Example 41, N-(4-tert-butyl-3-fluorophenyl)-6-((3-hydroxy-1,2-oxazol-5-yl)acetyl)-2-methoxy-5,6,7,8-tetrahydro-1,6-naphthyridine-5-carboxamide], the inhibition at 3 µM at RORγt [1] (setting [5]) was determined as 98.9%. The inhibition at 1 µM at RORγt [2] is 74.9%; on RORγt [3], 102%; at RORγt [4], 102%.

In the case of `COc1ccc2c(n1)CCN(C(=O)c1cc(O)no1)[C@H]2C(=O)Nc1ccc([Si](C)(C)C)c(F)c1` [Example 79, (5R)-N-(3-fluoro-4-(trimethylsilyl)phenyl)-6-((3-hydroxy-1,2-oxazol-5-yl)carbonyl)-2-methoxy-5,6,7,8-tetrahydro-1,6-naphthyridine-5-carboxamide], the inhibition at 3 µM at RORγt [1] (Jurkat) was determined as 102%. For the same compound, the inhibition at 1 µM came out at 97% on RORγt [2], 102% on RORγt [3] and 102% on RORγt [4].

As for `COCc1ccc2c(c1)CCN(C(=O)c1cc(O)no1)[C@H]2C(=O)Nc1ccc([Si](C)(C)C)c(F)c1` [Example 107, (1R)-N-(3-fluoro-4-(trimethylsilyl)phenyl)-2-((3-hydroxy-1,2-oxazol-5-yl)carbonyl)-6-(methoxymethyl)-1,2,3,4-tetrahydroisoquinoline-1-carboxamide], on RORγt [1] (Jurkat), the inhibition at 3 µM amounted to 102%. Further, the inhibition at 1 µM at RORγt [2] amounted to 100%; at RORγt [3], 103%; at RORγt [4] it was 102%.

In the case of `CCOCC(C)(C)c1c(F)cc(NC(=O)[C@H]2c3ccc(OC)cc3CCN2C(=O)Cc2cc(O)no2)cc1F` [Example 170, (1R)-N-(4-(1-ethoxy-2-methylpropan-2-yl)-3,5-difluorophenyl)-2-((3-hydroxy-1,2-oxazol-5-yl)acetyl)-6-methoxy-1,2,3,4-tetrahydroisoquinoline-1-carboxamide], the inhibition at 3 µM on RORγt [1] (setting [5]) was determined as 97%. In addition, the inhibition at 1 µM was 81% at RORγt [2], 102% at RORγt [3] and 102% at RORγt [4].

As for `COc1ccc2c(n1)CCN(C(=O)Cc1cc(O)no1)[C@H]2C(=O)Nc1ccc([Si](C)(C)C)c(F)c1` [Example 80, (5R)-N-(3-fluoro-4-(trimethylsilyl)phenyl)-6-((3-hydroxy-1,2-oxazol-5-yl)acetyl)-2-methoxy-5,6,7,8-tetrahydro-1,6-naphthyridine-5-carboxamide], at RORγt [1] (Jurkat), the inhibition at 3 µM is 100%. For the same compound, the inhibition at 1 µM came out at 97% at RORγt [2], 102% on RORγt [3] and 102% at RORγt [4].

Turning to `COCc1ccc2c(c1)CCN(C(=O)c1cc(O)no1)[C@H]2C(=O)Nc1cc(F)c(C(C)(C)COC)c(F)c1` [Example 137, (1R)-N-(3,5-difluoro-4-(1-methoxy-2-methylpropan-2-yl)phenyl)-2-((3-hydroxy-1,2-oxazol-5-yl)carbonyl)-6-(methoxymethyl)-1,2,3,4-tetrahydroisoquinoline-1-carboxamide], the inhibition at 3 µM at RORγt [1] (setting [5]) worked out at 103%. Further, the inhibition at 1 µM at RORγt [2] was found to be 98%; at RORγt [3], 102%; on RORγt [4], 102%.

As for `CCOc1ccc2c(n1)CCN(C(=O)CCCC(=O)O)[C@H]2C(=O)Nc1cc(F)c([Si](C)(C)C)c(F)c1` [Example 129, 5-((5R)-5-((3,5-difluoro-4-(trimethylsilyl)phenyl)carbamoyl)-2-ethoxy-7,8-dihydro-1,6-naphthyridin-6(5H)-yl)-5-oxopentanoic acid], on RORγt [1] (Jurkat), the inhibition at 3 µM was found to be 102%. Moreover, the inhibition at 1 µM came out at 99% on RORγt [2], 98% on RORγt [3] and 101% at RORγt [4].

With `COCc1ccc2c(n1)CCN(C(=O)Cc1cc(O)no1)[C@H]2C(=O)Nc1cc(F)c([Si](C)(C)C)c(F)c1` [Example 138, (5R)-N-(3,5-difluoro-4-(trimethylsilyl)phenyl)-6-((3-hydroxy-1,2-oxazol-5-yl)acetyl)-2-(methoxymethyl)-5,6,7,8-tetrahydro-1,6-naphthyridine-5-carboxamide], the inhibition at 3 µM at RORγt [1] (Jurkat) came out at 104%. For the same compound, the values for the inhibition at 1 µM on RORγt [2], on RORγt [3] and at RORγt [4] were 100%, 102% and 101%, respectively.

For `COCc1ccc2c(c1)CCN(C(=O)c1cc(O)no1)[C@H]2C(=O)Nc1cc(F)c2c(c1)CCC2(C)C` [Example 133, (1R)-N-(7-fluoro-1,1-dimethyl-2,3-dihydro-1H-inden-5-yl)-2-((3-hydroxy-1,2-oxazol-5-yl)carbonyl)-6-(methoxymethyl)-1,2,3,4-tetrahydroisoquinoline-1-carboxamide], at RORγt [1] (setting [5]), the inhibition at 3 µM stood at 103%. The inhibition at 1 µM stood at 96% at RORγt [2], 103% at RORγt [3] and 101% on RORγt [4].
